The source of these data is US20220040129A1, “TREATMENT OF HYPERAMMONEMIA IN PATIENTS WITH RENAL INSUFFICIENCY” (RECORDATI S.p.A., priority 2019, published 2022).

One series deals with T1, CYP1A2 (Homo sapiens, UniProt P05177).
T1 sequence (P05177 1-516): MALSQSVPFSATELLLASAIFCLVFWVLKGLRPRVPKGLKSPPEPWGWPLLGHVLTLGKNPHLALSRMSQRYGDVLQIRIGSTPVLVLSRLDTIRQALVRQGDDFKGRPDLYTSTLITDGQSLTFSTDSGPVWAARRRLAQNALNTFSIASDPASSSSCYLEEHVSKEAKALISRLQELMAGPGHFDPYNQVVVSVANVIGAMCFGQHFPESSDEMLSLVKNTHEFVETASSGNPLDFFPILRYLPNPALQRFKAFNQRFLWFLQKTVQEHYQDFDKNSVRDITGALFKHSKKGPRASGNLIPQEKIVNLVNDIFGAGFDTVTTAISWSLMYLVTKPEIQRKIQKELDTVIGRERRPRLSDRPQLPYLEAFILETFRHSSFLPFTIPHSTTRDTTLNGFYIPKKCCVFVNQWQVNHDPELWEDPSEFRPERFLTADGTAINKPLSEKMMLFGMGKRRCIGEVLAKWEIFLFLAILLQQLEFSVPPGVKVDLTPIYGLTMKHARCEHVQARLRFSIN
The class given is in vitro ADME.

Another series has as its system plasma NH3. Nature of the series: Plasma NH3 reduction in Propensity Matching Score (PMS) Population. The class given is in vivo, human. How it is done: Episodes treated with extracorporeal detoxification (HD, HF, PD) during the timeframe of the analysis were excluded. There were 12 patients in each group, and NH3 levels were measured in 12- and 24-hour periods over 120 hours. […] The two populations analyzed included: 1) Population with baseline plasma NH3 levels over 100 micromol/L in non-neonate or 150 micromol/L in neonate; 2) Propensity Matching Score (PMS) Population. […] These rates of decrease were confirmed to be statistically significant.

Series [1] is described as follows: Exposure previously observed in HVs following oral administration. The note with it: human, in vivo, read-out: Highest AUC previously observed.
In another series the target is T2, human OCT2 (Homo sapiens, UniProt O15244).
T2 sequence (O15244 1-555): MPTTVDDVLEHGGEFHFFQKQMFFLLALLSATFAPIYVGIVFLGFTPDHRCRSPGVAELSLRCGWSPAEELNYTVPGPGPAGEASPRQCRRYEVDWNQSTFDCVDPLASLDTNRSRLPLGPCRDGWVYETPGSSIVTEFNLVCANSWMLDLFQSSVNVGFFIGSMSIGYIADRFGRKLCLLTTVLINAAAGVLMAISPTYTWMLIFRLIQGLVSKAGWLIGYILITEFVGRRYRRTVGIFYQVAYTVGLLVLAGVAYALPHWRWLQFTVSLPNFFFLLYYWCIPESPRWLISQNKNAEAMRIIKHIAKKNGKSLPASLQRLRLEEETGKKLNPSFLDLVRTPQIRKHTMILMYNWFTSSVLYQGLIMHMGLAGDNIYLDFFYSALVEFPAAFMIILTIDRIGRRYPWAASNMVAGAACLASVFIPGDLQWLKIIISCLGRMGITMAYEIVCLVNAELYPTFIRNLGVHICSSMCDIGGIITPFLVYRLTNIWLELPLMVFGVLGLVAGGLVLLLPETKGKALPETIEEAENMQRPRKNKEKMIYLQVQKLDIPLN
In words: In vitro transporter inhibition. The class given is in vitro ADME. The procedure:
In vitro drug interaction studies were performed with human transporters. […] Potential interactions with inhibitors of the OAT1 transporter were considered clinically irrelevant.

`NC(=O)N[C@@H](CCC(=O)O)C(=O)O` [carglumic acid, N-carbamoyl-L-glutamic acid]: the “Inhibition of CYP1A2” value on CYP1A2 is on record as “not an inhibitor”. For the same compound, the “Reduction of mean plasma NH3 levels from baseline compared with NH3 Scav alone” value with plasma NH3 (12 patients per group, over 120 hours) was “consistent and meaningful reduction”. In addition, the “Median reduction of plasma NH3” value in the series on plasma NH3 (24 hours post dose) is 61%. The AUC in series [1] turned out to be 30700 ng·h/mL. The “Inhibition of human OCT2 uptake transporter” value on human OCT2 is recorded as “not an inhibitor”.
